In ChEMBL document CHEMBL5331073, “Discovery of novel 7,7-dimethyl-6,7-dihydro-5H-pyrrolo[3,4-d]pyrimidines as ATR inhibitors based on structure-based drug design” (Eur J Med Chem, 2023):

Columns and labels:
[1] = biological target: Serine/threonine-protein kinase ATR (Homo sapiens, UniProt Q13535); experiment: Inhibition of ATR (unknown origin) using peptide as substrate preincubated for 10 mins followed by substrate addition by microplate reader analysis
LoVo [2] = experiment: Antiproliferative activity against ATM-deficient human LoVo cells assessed as reduction in cell proliferation at 0.2 uM incubated for 3 days by MTT assay; format: functional; design: scale not given: the % may be the effect or the level left; settings: time 3 day
in vitro [3] = settings: rat, liver microsomes
in vitro [4] = settings: rat, liver microsomes; remark: listed apart in the source
in vitro [5] = settings: human, liver microsomes
in vitro [6] = settings: rat, liver microsomes; remark: listed apart in the source
LoVo [7] = experiment: Antiproliferative activity against ATM-deficient human LoVo cells assessed as reduction in cell proliferation incubated for 3 days by MTT assay; format: functional, cell-based; settings: 72 h
in vitro [8] = settings: human, liver microsomes; remark: listed apart in the source
in vitro [9] = settings: human, liver microsomes; remark: listed apart in the source
HT-29 = experiment: Antiproliferative activity against ATM-proficient human HT-29 cells assessed as reduction in cell proliferation incubated for 3 days by MTT assay; format: functional, cell-based; settings: HT-29, 72 h

Chain of Serine/threonine-protein kinase ATR (Q13535 whole entry): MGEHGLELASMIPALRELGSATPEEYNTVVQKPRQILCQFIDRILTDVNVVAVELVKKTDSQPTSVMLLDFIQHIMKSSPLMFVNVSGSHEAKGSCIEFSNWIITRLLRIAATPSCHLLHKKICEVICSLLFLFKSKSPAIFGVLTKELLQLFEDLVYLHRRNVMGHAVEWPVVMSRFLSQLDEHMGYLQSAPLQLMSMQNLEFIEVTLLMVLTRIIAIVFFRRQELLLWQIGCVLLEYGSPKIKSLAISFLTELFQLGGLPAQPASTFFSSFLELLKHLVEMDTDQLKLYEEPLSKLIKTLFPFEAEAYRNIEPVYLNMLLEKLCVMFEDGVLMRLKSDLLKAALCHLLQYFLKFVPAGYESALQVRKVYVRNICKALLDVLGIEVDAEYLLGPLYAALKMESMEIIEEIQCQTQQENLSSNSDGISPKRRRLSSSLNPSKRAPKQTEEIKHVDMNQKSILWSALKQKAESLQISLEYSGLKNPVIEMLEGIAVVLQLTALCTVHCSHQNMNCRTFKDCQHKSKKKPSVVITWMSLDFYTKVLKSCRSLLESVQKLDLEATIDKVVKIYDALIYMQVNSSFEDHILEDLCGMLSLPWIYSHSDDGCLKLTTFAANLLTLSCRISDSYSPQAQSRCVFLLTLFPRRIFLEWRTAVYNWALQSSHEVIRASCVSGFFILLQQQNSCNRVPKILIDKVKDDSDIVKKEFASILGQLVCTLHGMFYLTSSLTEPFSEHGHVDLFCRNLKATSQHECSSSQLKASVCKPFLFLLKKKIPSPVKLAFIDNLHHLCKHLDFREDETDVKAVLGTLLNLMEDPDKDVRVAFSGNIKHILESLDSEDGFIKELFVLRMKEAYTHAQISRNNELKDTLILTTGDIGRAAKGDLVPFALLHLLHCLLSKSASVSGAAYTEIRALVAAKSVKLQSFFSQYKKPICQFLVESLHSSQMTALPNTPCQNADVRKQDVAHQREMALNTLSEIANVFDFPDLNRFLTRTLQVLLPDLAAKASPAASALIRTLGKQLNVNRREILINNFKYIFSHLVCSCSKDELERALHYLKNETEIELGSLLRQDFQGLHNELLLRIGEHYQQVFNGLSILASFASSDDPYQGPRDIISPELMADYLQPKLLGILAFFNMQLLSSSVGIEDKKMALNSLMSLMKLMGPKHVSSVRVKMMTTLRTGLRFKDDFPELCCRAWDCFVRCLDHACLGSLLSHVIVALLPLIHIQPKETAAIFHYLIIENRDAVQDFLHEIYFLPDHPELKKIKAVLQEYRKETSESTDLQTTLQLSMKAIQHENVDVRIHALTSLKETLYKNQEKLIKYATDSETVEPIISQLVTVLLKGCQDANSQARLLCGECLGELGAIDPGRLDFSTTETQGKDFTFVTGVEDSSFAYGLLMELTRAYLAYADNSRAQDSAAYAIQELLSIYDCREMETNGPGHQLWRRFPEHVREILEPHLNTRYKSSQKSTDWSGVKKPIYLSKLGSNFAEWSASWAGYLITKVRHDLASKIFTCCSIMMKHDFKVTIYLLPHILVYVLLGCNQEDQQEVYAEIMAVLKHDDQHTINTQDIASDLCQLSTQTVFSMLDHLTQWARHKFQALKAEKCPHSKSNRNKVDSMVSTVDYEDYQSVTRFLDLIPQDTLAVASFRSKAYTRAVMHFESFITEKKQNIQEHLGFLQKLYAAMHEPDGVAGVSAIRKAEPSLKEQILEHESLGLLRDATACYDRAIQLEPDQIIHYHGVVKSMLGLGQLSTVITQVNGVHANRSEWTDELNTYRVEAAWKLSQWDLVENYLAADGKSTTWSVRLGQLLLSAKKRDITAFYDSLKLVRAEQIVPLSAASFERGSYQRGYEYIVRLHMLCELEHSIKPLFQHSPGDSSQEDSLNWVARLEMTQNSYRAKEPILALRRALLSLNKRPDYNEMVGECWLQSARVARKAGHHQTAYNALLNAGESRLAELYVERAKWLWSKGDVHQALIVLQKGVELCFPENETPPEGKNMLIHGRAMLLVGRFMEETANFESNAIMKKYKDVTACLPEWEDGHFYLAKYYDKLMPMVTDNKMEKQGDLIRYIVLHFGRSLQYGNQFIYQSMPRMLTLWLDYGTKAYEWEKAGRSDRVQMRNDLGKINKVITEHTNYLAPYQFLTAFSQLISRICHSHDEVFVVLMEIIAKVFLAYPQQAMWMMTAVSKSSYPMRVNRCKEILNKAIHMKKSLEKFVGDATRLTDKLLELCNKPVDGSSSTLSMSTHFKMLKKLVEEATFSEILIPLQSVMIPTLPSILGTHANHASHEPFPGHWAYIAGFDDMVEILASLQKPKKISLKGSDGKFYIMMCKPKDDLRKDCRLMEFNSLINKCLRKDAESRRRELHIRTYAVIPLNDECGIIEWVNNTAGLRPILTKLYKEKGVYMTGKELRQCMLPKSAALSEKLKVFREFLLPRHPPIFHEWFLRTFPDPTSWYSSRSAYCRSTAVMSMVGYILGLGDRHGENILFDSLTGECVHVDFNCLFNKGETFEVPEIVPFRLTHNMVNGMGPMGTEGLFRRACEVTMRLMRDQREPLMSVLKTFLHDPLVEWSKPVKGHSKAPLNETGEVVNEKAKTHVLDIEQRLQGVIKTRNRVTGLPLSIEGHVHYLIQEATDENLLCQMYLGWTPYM

| IC50 [1] [nM] | SMILES | other results |
| --- | --- | --- |
| 38 | CCC(=O)N1CCc2c(nc(-c3cccc4[nH]ccc34)nc2N2CCOC[C@H]2C)C1 |  |
| 19 | COc1cc(C(=O)N2Cc3c(N4CCOC[C@H]4C)nc(-c4cccc5[nH]ccc45)nc3C2(C)C)cc(OC)c1OC |  |
| 28 | C[C@@H]1COCCN1c1nc(-c2cccc3[nH]ccc23)nc2c1CCN(C(=O)C1CC1)C21CCC1 |  |
| 51 | COc1ccc(C(=O)N2CCc3c(nc(-c4cccc5[nH]ccc45)nc3N3CCOC[C@H]3C)C2)cc1 |  |
| 2 | CC(=O)N1Cc2c(N3CCOC[C@H]3C)nc(-c3cccc4[nH]ccc34)nc2C1(C)C | Activity (LoVo [2]): <45% |
| 8 | C[C@@H]1COCCN1c1nc(-c2cccc3[nH]ccc23)nc2c1CN(C(=O)C1CC1)C2(C)C | Activity (LoVo [2]): <45% |
| > 100 | COc1ccc(C(=O)N2CCc3c(N4CCOC[C@H]4C)nc(-c4cccc5[nH]ccc45)nc3C23CCC3)cc1 |  |
| 29 | CC(C)C(=O)N1CCc2c(N3CCOC[C@H]3C)nc(-c3cccc4[nH]ccc34)nc2C12CCC2 |  |
| > 100 | COc1cccc(C(=O)N2CCc3c(N4CCOC[C@H]4C)nc(-c4cccc5[nH]ccc45)nc3C23CCC3)c1 |  |
| 22 | C[C@@H]1COCCN1c1nc(-c2cccc3[nH]ccc23)nc2c1CCN(C(=O)Cc1ccccc1)C2(C)C |  |
| > 1100 | COc1ccc(C(=O)N2CCc3nc(-c4cccc5[nH]ccc45)nc(N4CCOC[C@H]4C)c3C2)cc1 |  |
| 18 | CCOC(=O)N1CCc2c(N3CCOC[C@H]3C)nc(-c3cccc4[nH]ccc34)nc2C1(C)C |  |
| 5 | C[C@@H]1COCCN1c1nc(-c2cccc3[nH]ccc23)nc2c1CN(C(=O)c1ccc(OC(F)F)cc1)C2(C)C | Activity (LoVo [2]): <45% |
| 8 | CC(C)C(=O)N1Cc2c(N3CCOC[C@H]3C)nc(-c3cccc4[nH]ccc34)nc2C1(C)C | Activity (LoVo [2]): <45% |
| 12 | C[C@@H]1COCCN1c1nc(-c2cccc3[nH]ccc23)nc2c1CN(C(=O)C(C)(C)C)C2(C)C | Activity (LoVo [2]): <45% |
| 18 | COC(=O)N1CCc2c(N3CCOC[C@H]3C)nc(-c3cccc4[nH]ccc34)nc2C1(C)C |  |
| 76 | COc1cccc(C(=O)N2CCc3c(nc(-c4cccc5[nH]ccc45)nc3N3CCOC[C@H]3C)C2)c1 |  |
| 111 | C[C@@H]1COCCN1c1nc(-c2cccc3[nH]ccc23)nc2c1CN(C(=O)C1CC1)CC2 |  |
| 9 | CCC(=O)N1CCc2c(N3CCOC[C@H]3C)nc(-c3cccc4[nH]ccc34)nc2C1(C)C | microsomal CLint at 1 h, 1 µM (in vitro [3]): 98.8 µL/min/mg; CLint scaled at 1 h, 1 µM (in vitro [4]): 178 mL/min/kg; CLint scaled at 1 h, 1 µM (in vitro [5]): 195 mL/min/kg; half-life at 1 h, 1 µM (in vitro [6]): 14 min; IC50 (LoVo [7]): 779 nM; microsomal CLint at 1 h, 1 µM (in vitro [8]): 207 µL/min/mg; half-life at 1 h, 1 µM (in vitro [9]): 6.7 min; IC50 (HT-29): 2470 nM |
| 14 | C[C@@H]1COCCN1c1nc(-c2cccc3[nH]ccc23)nc2c1CCN(C(=O)c1cccc(F)c1)C2(C)C | microsomal CLint at 1 h, 1 µM (in vitro [3]): 59.6 µL/min/mg; CLint scaled at 1 h, 1 µM (in vitro [4]): 107 mL/min/kg; CLint scaled at 1 h, 1 µM (in vitro [5]): 169 mL/min/kg; half-life at 1 h, 1 µM (in vitro [6]): 23.4 min; IC50 (LoVo [7]): 964 nM; microsomal CLint at 1 h, 1 µM (in vitro [8]): 179 µL/min/mg; half-life at 1 h, 1 µM (in vitro [9]): 7.76 min; IC50 (HT-29): 2580 nM |
| 42 | C[C@@H]1COCCN1c1nc(-c2cccc3[nH]ccc23)nc2c1CN(C(=O)c1ccc(OC(F)(F)F)cc1)C2(C)C |  |
| 4 | C[C@@H]1COCCN1c1nc(-c2cccc3[nH]ccc23)nc2c1CN(C(=O)c1ccc3c(c1)OCCO3)C2(C)C | IC50 (LoVo [7]): 147 nM; IC50 (HT-29): 487 nM |
| 14 | C[C@@H]1COCCN1c1nc(-c2cccc3[nH]ccc23)nc2c1CCN(C(=O)C1CC1)C2 |  |
| 17 | Cc1cccc(C(=O)N2CCc3c(N4CCOC[C@H]4C)nc(-c4cccc5[nH]ccc45)nc3C2(C)C)c1 |  |
| 7 | COc1ccc(C(=O)N2Cc3c(N4CCOC[C@H]4C)nc(-c4cccc5[nH]ccc45)nc3C2(C)C)cc1OC |  |

| IC50 [1] [nM] | SMILES | other results |
| --- | --- | --- |
| 23 | CCC(=O)N1CCc2c(N3CCOC[C@H]3C)nc(-c3cccc4[nH]ccc34)nc2C12CCC2 |  |
| 10 | CC(C)C(=O)N1CCc2c(N3CCOC[C@H]3C)nc(-c3cccc4[nH]ccc34)nc2C1(C)C | microsomal CLint at 1 h, 1 µM (in vitro [3]): 129 µL/min/mg; CLint scaled at 1 h, 1 µM (in vitro [4]): 232 mL/min/kg; CLint scaled at 1 h, 1 µM (in vitro [5]): 466 mL/min/kg; half-life at 1 h, 1 µM (in vitro [6]): 10.9 min; IC50 (LoVo [7]): 1120 nM; microsomal CLint at 1 h, 1 µM (in vitro [8]): 493 µL/min/mg; half-life at 1 h, 1 µM (in vitro [9]): 2.82 min; IC50 (HT-29): 4310 nM |
| 72 | C[C@@H]1COCCN1c1nc(-c2cccc3[nH]ccc23)nc2c1CCN(C(=O)c1cccc(C(F)(F)F)c1)C2(C)C |  |
| 6 | C=CC(=O)N1CCc2c(N3CCOC[C@H]3C)nc(-c3cccc4[nH]ccc34)nc2C1(C)C |  |
| > 100 | COc1cccc(C(=O)N2CCc3nc(-c4cccc5[nH]ccc45)nc(N4CCOC[C@H]4C)c3C2)c1 |  |
| 17 | C[C@@H]1COCCN1c1nc(-c2cccc3[nH]ccc23)nc2c1CCN(C(=O)C(C)(C)C)C2(C)C |  |
| 9 | COc1ccc(C(=O)N2CCc3c(N4CCOC[C@H]4C)nc(-c4cccc5[nH]ccc45)nc3C2(C)C)cc1 |  |
| 18 | C[C@@H]1COCCN1c1nc(-c2cccc3[nH]ccc23)nc2c1CCN(C(=O)c1ccc(F)cc1)C2(C)C |  |
| > 100 | CC(C)C(=O)N1CCc2nc(-c3cccc4[nH]ccc34)nc(N3CCOC[C@H]3C)c2C1 |  |
| 35 | CC(=O)N1CCc2c(N3CCOC[C@H]3C)nc(-c3cccc4[nH]ccc34)nc2C12CCC2 |  |
| 32 | C[C@@H]1COCCN1c1nc(-c2cccc3[nH]ccc23)nc2c1CCN(C(=O)CN(C)C)C2(C)C |  |
| 52 | C[C@@H]1COCCN1c1nc(-c2cccc3[nH]ccc23)nc2c1CCN(C(=O)CN1CCN(C)CC1)C2(C)C |  |
| 9 | C[C@@H]1COCCN1c1nc(-c2cccc3[nH]ccc23)nc2c1CCN(C(=O)Cc1cccs1)C2(C)C |  |
| > 1100 | CCC(=O)N1CCc2nc(-c3cccc4[nH]ccc34)nc(N3CCOC[C@H]3C)c2C1 |  |
| > 100 | CC(=O)N1CCc2nc(-c3cccc4[nH]ccc34)nc(N3CCOC[C@H]3C)c2C1 |  |
| 2 | CCC(=O)N1Cc2c(N3CCOC[C@H]3C)nc(-c3cccc4[nH]ccc34)nc2C1(C)C | Activity (LoVo [2]): <45% |
| 29 | CC(=O)N1CCc2c(nc(-c3cccc4[nH]ccc34)nc2N2CCOC[C@H]2C)C1 |  |
| 9 | C[C@@H]1COCCN1c1nc(-c2cccc3[nH]ccc23)nc2c1CCN(C(=O)c1ccccc1)C2(C)C | microsomal CLint at 1 h, 1 µM (in vitro [3]): 36.4 µL/min/mg; CLint scaled at 1 h, 1 µM (in vitro [4]): 65.5 mL/min/kg; CLint scaled at 1 h, 1 µM (in vitro [5]): 53.7 mL/min/kg; half-life at 1 h, 1 µM (in vitro [6]): 38.2 min; IC50 (LoVo [7]): 574 nM; microsomal CLint at 1 h, 1 µM (in vitro [8]): 56.8 µL/min/mg; half-life at 1 h, 1 µM (in vitro [9]): 24.5 min; IC50 (HT-29): 1640 nM |
| 5 | COc1cccc(C(=O)N2CCc3c(N4CCOC[C@H]4C)nc(-c4cccc5[nH]ccc45)nc3C2(C)C)c1 |  |
| 7 | C[C@@H]1COCCN1c1nc(-c2cccc3[nH]ccc23)nc2c1CN(C(=O)C1CCC1)C2(C)C | Activity (LoVo [2]): <45% |
| > 100 | C[C@@H]1COCCN1c1nc(-c2cccc3[nH]ccc23)nc2c1CCN(C(=O)c1ccc(C(F)(F)F)cc1)C2(C)C |  |
| 43 | C[C@@H]1COCCN1c1nc(-c2cccc3[nH]ccc23)nc2c1CCN(C(=O)c1cccc(Cl)c1)C2(C)C |  |
| 15 | CC(C)C(=O)N1CCc2c(nc(-c3cccc4[nH]ccc34)nc2N2CCOC[C@H]2C)C1 |  |
| 17 | C[C@@H]1COCCN1c1nc(-c2cccc3[nH]ccc23)nc2c1CCN(C(=O)C1CCC1)C2(C)C |  |
| 8 | C[C@@H]1COCCN1c1nc(-c2cccc3[nH]ccc23)nc2c1CCN(C(=O)C1CC1)C2(C)C |  |
